Legend:
KDM5 = assay: Immunofluorescence of histone methyl mark H3K4me3 in U-87MG cells; format: cell-based, human; settings: 50 μM, 48 h
Method: (§1) For immunofluorescence (IF) analysis, 50 × 10^4 U-87MG cells were grown on sterile coverslips. Twenty-four hours after plating, the cells were treated with the different compounds (IOX-1 at 100 μM, GSK-J4 at 10 μM, CPI-455 at 25 μM, and both MINA53 inhibitors 9 and 10 at 50 μM) for 48 h. IF staining for different trimethylated lysine residues of histone H3 ([…]) were carried out on PFA-fixed cells blocked with 20% goat serum in PBS (1 h, RT) and incubated overnight at 4 °C with primary rabbit polyclonal antibodies against H3K4me3 (Cell Signaling, C42D8, 1:400), H3K9me3 (Cell Signaling, D4W1U, 1:400), and H3K27me3 (Cell Signaling, C36B11, 1:400). Primary antibodies were detected using rabbit anti-IgG secondary antibodies conjugated with either Cy3 (Jackson Immunoresearch 711-165-152). DNA was stained using 0.05 μg/mL 4′,6-diamidino-2-phenylindole (DAPI), and after washing, the coverslips were mounted in Vectashield mounting media. […]
(§2) For quantification of fluorescence intensity signals, images of untreated or treated cells were analyzed and processed using open-source Cell Profiler 4.1.3 image analysis software (https://cellprofiler.org/) to measure fluorescence-integrated intensity values for antibody-binding relating to individual cells. […]

U937 = assay: WST-1 cell proliferation assay; format: cell-based; settings: Homo sapiens, U-937; AML; WST-1, 48 h; read-out: IC50 antiproliferative effect, U937
Method: (§3) The effect of compounds on cell proliferation of different leukemia and lymphoma cell lines OCI-AML3 (DSMZ ACC-582), IMS-M2 (a gift from Professor B. Falini, University of Perugia), OCI-AML2 (DSMZ, ACC-99), MV4–11 (ATCC, CRL-9591), Kasumi-1 (ATCC, CRL-2724), Karpass299 (DSMZ, ACC-31), U937 (ATCC, CRL1593.2), HL-60 (ATCC, CCL-240), and NB4 (DSMZ, ACC-207) was evaluated using the WST-1 assay (Roche Diagnostic GmbH Germany). The cells were plated, in triplicate, in 384-viewplate (Perkin Elmer) at a density of 5 × 10^3 cells/well in a final volume of 22.5 μL. The cells were incubated with increasing concentrations of compounds for 48 h at 37 °C, 5% CO2, then 2.5 μL of WST-1 reagent was added to each well for 1 h. For each cell line, dose–response curves were analyzed as nonlinear regression curves using GraphPad Prism (GraphPad Software Inc.) to obtain IC50 values.

OCI-AML2 = assay: WST-1 cell proliferation assay; format: cell-based; settings: Homo sapiens, AML, WST-1, 48 h, read-out: IC50 antiproliferative effect, OCI-AML2
Method: as §3

NB4 = assay: WST-1 cell proliferation assay; format: cell-based; settings: Homo sapiens, NB-4; APL; WST-1, 48 h; read-out: IC50 antiproliferative effect, NB4
Method: as §3

MV4-11 = assay: WST-1 cell proliferation assay; format: cell-based; settings: Homo sapiens, AML, WST-1, 48 h, read-out: IC50 antiproliferative effect, MV4-11
Method: as §3

HL-60 = assay: WST-1 cell proliferation assay; format: cell-based; settings: Homo sapiens, APL, WST-1, 48 h, read-out: IC50 antiproliferative effect, HL-60
Method: as §3

OCI-AML3 = assay: WST-1 cell proliferation assay; format: cell-based; settings: Homo sapiens, OCI-AML-3, WST-1, 48 h, read-out: IC50 antiproliferative effect, OCI-AML3
Method: as §3

Kasumi-1 = assay: WST-1 cell proliferation assay; format: cell-based; settings: Homo sapiens, AML, WST-1, 48 h, read-out: IC50 antiproliferative effect, Kasumi-1
Method: as §3

IMS-M2 = assay: WST-1 cell proliferation assay; format: cell-based; settings: AML, WST-1, 48 h, read-out: IC50 antiproliferative effect, IMS-M2
Method: as §3

Karpass299 = assay: WST-1 cell proliferation assay; format: cell-based; settings: ALCL; WST-1, 48 h; read-out: IC50 antiproliferative effect, Karpass299
Method: as §3

HA-tagged NO66 = biological target: T1, HA-tagged NO66 (Homo sapiens, UniProt Q9H6W3); assay: Substrate trapping by anti-HA immunoprecipitation (RPL8); format: cell-based; settings: HEK293T cells; 100 μM, 18 h
T1 construct: expressed in transfected cells; host or cells: HEK293T (transient, pEF6 vector)
Method: Proteins were transferred onto nitrocellulose or PVDF membranes and incubated with rabbit γ-H2AX (#9718, Cell Signaling Technologies, MA) anti-GAPDH (Sc47724, Santa Cruz Biotechnology, Santa Cruz, CA), rabbit anti-RPL27A (Abcam, ab74731), goat anti-RPL8 (Abcam, ab63941), horseradish peroxidase (HRP)-conjugated anti-HA (Roche, 12013819001), and HRP-conjugated anti-β-actin (Abcam, ab-49900).
For immunoprecipitation, the cells were harvested on ice and lysed by rotation for 1 h at 4 °C in JIES buffer. The cell debris was subsequently pelleted by centrifugation (10 min at 21 910g at 4 °C), and the supernatant was incubated overnight at 4 °C with Pierce anti-HA agarose beads (Thermo Scientific, 26181). The next day, the beads were washed 6 times with JIES buffer before the immunoprecipitates were eluted for 15 min at 1400 rpm at room temperature using 1 mg/mL HA peptide (Thermo Scientific, 26184) dissolved in JIES buffer. The eluted samples were then prepared in 1× Laemmli loading buffer (6x: 125 mM Tris-HCl [pH 6.8], 6% (w/v) SDS, 50% (v/v) glycerol, 225 mM dithiothreitol (DTT), and 0.1% (w/v) bromophenol blue) and boiled for 5 min for detection by western blot.
Plasmid DNA transfections were performed using a FuGENE 6 transfection reagent (Promega, E2691). […]

KDM6 = assay: Immunofluorescence of histone methyl mark H3K27me3 in U-87MG cells; format: cell-based, human; settings: 50 μM, 48 h
Method: as §1, §2

KDM4 = assay: Immunofluorescence of histone methyl mark H3K9me3 in U-87MG cells; format: cell-based, human; settings: 50 μM, 48 h
Method: as §1, §2

T1 sequence (Q9H6W3 whole entry): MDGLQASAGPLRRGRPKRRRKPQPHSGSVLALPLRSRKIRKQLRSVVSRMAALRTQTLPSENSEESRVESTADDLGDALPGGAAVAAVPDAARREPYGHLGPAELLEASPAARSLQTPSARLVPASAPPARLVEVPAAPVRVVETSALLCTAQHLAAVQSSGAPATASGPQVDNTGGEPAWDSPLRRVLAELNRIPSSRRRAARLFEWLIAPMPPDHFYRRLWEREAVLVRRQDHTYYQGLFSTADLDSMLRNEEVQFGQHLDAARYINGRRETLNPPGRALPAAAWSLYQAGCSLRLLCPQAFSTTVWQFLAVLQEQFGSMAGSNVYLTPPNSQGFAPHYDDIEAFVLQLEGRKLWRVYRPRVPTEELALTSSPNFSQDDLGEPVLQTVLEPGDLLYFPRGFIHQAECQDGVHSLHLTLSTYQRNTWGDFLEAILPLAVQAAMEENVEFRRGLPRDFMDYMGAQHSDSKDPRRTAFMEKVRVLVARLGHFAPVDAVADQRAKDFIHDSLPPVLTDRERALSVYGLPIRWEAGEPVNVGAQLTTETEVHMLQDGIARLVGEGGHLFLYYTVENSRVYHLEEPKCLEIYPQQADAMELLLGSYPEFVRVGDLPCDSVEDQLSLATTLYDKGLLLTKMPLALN

| SMILES | level of histone methyl mark H3K4me3 (KDM5 selectivity) (KDM5) | IC50 (U937) | IC50 (OCI-AML2) | IC50 (NB4) | IC50 (MV4-11) | IC50 (HL-60) | IC50 (OCI-AML3) | IC50 (Kasumi-1) | IC50 (IMS-M2) | IC50 (Karpass299) | trapping of RPL8 with HA-tagged NO66 (HA-tagged NO66) | level of histone methyl mark H3K27me3 (KDM6 selectivity) (KDM6) | level of histone methyl mark H3K9me3 (KDM4 selectivity) (KDM4) |
| --- | --- | --- | --- | --- | --- | --- | --- | --- | --- | --- | --- | --- | --- |
| O=C(O)c1cnc(SCCc2ccccc2)[nH]c1=O [compound 9, 2-(Phenethylthio)-3,4-dihydro-4-oxopyrimidine-5-carboxylic Acid] | did not observe any evidence for an increase | > 100 µM | > 100 µM | 91 ± 3 µM | > 100 µM | 73 ± 3 µM | > 100 µM | > 100 µM | > 100 µM | > 100 µM | did not observe evidence | did not observe any evidence for an increase | did not observe any evidence for an increase |
| O=C(O)c1cnc(SCCCc2ccccc2)[nH]c1=O [compound 10, 2-((3-Phenylpropyl)thio)-3,4-dihydro-4-oxopyrimidine-5-carboxylic Acid] | did not observe any evidence for an increase | > 100 µM | > 100 µM | 94 ± 4 µM | > 100 µM | 14 ± 2 µM | > 100 µM | > 100 µM | > 100 µM | > 100 µM | did not observe evidence | did not observe any evidence for an increase | did not observe any evidence for an increase |
| O=C(O)c1c[nH]c(=S)[nH]c1=O [compound 1] | – | > 100 µM | > 100 µM | > 100 µM | > 100 µM | > 100 µM | > 100 µM | > 100 µM | > 100 µM | > 100 µM | – | – | – |

From article PMC8667043, “First-in-Class Inhibitors of the Ribosomal Oxygenase MINA53” (Journal of Medicinal Chemistry, 2021)
